Measured values as given in PubChem BioAssay (NCI).
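All cell lines were grown in 96-well plates and treated with compound for 48 hours. TGI marks complete inhibition of growth.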

Columns and labels:
Test in all cases: inhibition of tumour cell growth, NCI panel, 48 h
KM12 colon = tested on: KM12 colon
SF-539 CNS = tested on: SF-539 CNS
HCT-116 colon = tested on: HCT-116 colon
OVCAR-5 ovarian = tested on: OVCAR-5 ovarian
UACC-62 melanoma = tested on: UACC-62 melanoma
SK-MEL-28 melanoma = tested on: SK-MEL-28 melanoma
OVCAR-3 ovarian = tested on: OVCAR-3 ovarian
HOP-92 NSCLC = tested on: HOP-92 NSCLC
SF-295 CNS = tested on: SF-295 CNS
MCF7 breast = tested on: MCF7 breast

Row | Structure (SMILES) | TGI (KM12 colon) [µM] | TGI (SF-539 CNS) [µM] | TGI (HCT-116 colon) [µM] | TGI (OVCAR-5 ovarian) [µM] | TGI (UACC-62 melanoma) [µM] | TGI (SK-MEL-28 melanoma) [µM] | TGI (OVCAR-3 ovarian) [µM] | TGI (HOP-92 NSCLC) [µM] | TGI (SF-295 CNS) [µM] | TGI (MCF7 breast) [µM]
1 | CCOC(=O)c1c(C)n(Cc2ccccc2)c(=O)c2ccccc2c(=O)c2c(=O)ccc(=O)c1=2 | > 100 | > 100 | 46.8 | > 100 | > 100 | > 100 | > 100 | 41.5 | > 100 | 
2 | Cc1c(N2C(=O)/C(=C/C=C/c3ccccc3)N=C2c2ccccc2)c(=O)n(-c2ccccc2)n1C | 80.3 | 47.1 | > 100 | 51.7 | 32 |  | 46.6 | 51.3 | 40 | > 100
3 | CC(C)=CCC[C@]1(C)CC[C@]2(C)C3CCC(=C(C)C)[C@@H](CCCO)[C@]3(C)CC[C@@]2(C)C1 (some centres not stated) | > 100 |  | > 100 | > 100 | > 100 | > 100 | > 100 |  | > 100 | 67.5
4 | CSC1=N/C(=C\c2ccc(C)cc2)C(=O)N1CN1CCOCC1 | > 100 |  | > 100 | > 100 | > 100 |  | > 100 | > 100 | > 100 | > 100
5 | Cc1ccc2c(c1)SSSSS2 | 34 |  | 30.6 | 46.9 | 36.2 | 65.4 | 40.5 | 34.5 | 37 | 43
6 | CSc1ccc2c(cc1=O)[C@@H](NC(C)=O)CCc1cc(O)c(O)c(O)c1-2 | 41.4 |  | > 100 | 35.9 | > 100 | > 100 | 34.2 | 70.6 | 31.2 | 19.8
7 | COC(CN(C)C(=O)C(C)NC(=O)c1ccccc1)OC (configuration not stated) | > 100 | > 100 | > 100 | > 100 | > 100 |  |  | > 100 | > 100 | > 100
8 | O=c1[nH]c2ccc(C(F)(F)F)cc2nc1-c1ccccc1 |  | > 100 | > 100 | > 100 | > 100 | > 100 | > 100 | > 100 | > 100 | > 100
9 | CC/C(=N\NC(=O)c1cccnc1)c1ccc2c(c1)OCCO2 | > 100 | > 100 | > 100 | > 100 | > 100 | > 100 | > 100 |  | > 100 | > 100
10 | CN1C2CCC1CC(OC(c1ccccc1)c1ccccc1)C2 (configuration not stated) | 37.9 |  | 25.1 | 41.2 | 30.4 | 27.8 | 47 | 29.1 | 23.5 | 26.9
11 | C=C(O)c1ccccc1C#Cc1ccccc1C(=O)OC | > 10 | > 10 | > 10 | > 10 | > 10 | > 10 | > 10 |  | > 10 | > 10
12 | CN(C1=NCCO1)c1cccc2ccccc12 | > 10 | > 10 | > 10 | > 10 | > 10 | > 10 | > 10 |  | > 10 | > 10
13 | O=c1c(O)c(-c2ccc(O)cc2O)oc2cc(O)cc(O)c12 | > 100 | > 100 | > 100 | > 100 |  | > 100 | > 100 | > 100 | > 100 | > 100
14 | NC(=S)/N=C/c1c(O)c2ccccc2oc1=O | > 100 | > 100 | > 100 | > 100 | > 100 | > 100 | > 100 | > 100 | > 100 | 
15 | c1ccc(COc2ccc(CC3SCCCS3)cc2)cc1 |  |  | > 100 |  | > 100 | > 100 | > 100 | 74.3 | > 100 | > 100
16 | CC(=O)N=C(N=Nc1c(O)[nH]c2ccc(C)cc12)NC(C)=O | > 100 |  | > 100 | > 100 | > 100 | > 100 |  | > 100 | > 100 | > 100
17 | O=C(NN=C1CCN(Cc2ccccc2)CC1)C(O)(c1ccccc1)c1ccccc1 | > 100 | > 100 | > 100 | > 100 | > 100 | > 100 |  | > 100 | > 100 | > 100
18 | Cc1cc2nc3n[nH]c(N)c3nc2cc1C | > 100 |  | > 100 | > 100 | > 100 | > 100 |  | > 100 | > 100 | > 100

Row | Structure (SMILES) | TGI (KM12 colon) [µM] | TGI (SF-539 CNS) [µM] | TGI (HCT-116 colon) [µM] | TGI (OVCAR-5 ovarian) [µM] | TGI (UACC-62 melanoma) [µM] | TGI (SK-MEL-28 melanoma) [µM] | TGI (OVCAR-3 ovarian) [µM] | TGI (HOP-92 NSCLC) [µM] | TGI (SF-295 CNS) [µM] | TGI (MCF7 breast) [µM]
19 | CCCCCC(CN1CCOCC1)C(=O)/C=C/c1ccccc1 (configuration not stated) | 3.79 | 4.71 | 3.34 | 11.1 | 3.37 | 19.1 | 8.64 | 8.54 | 10.2 | 
20 | O=C1C=CC(=O)c2c1ccc1c3ccccc3n(-c3ccccn3)c21 | > 100 | 68.2 | 25.9 | > 100 |  | > 100 | 63.8 | 29.9 | > 100 | 
21 | CC(=O)/C(C=Nc1c(C)n(C)n(-c2ccccc2)c1=O)=C(/C)O | > 100 | > 100 | > 100 | > 100 | > 100 |  | > 100 | > 100 | > 100 | > 100
22 | Cc1cc(-c2ccc(C(=O)O)[nH]2)on1 | > 100 |  | > 100 | > 100 | > 100 | > 100 | > 100 | > 100 | > 100 | > 100
23 | CCOC(=O)/C(C#N)=C/c1ccc2c(-c3c(OCC)ccc4cc(/C=C(\C#N)C(=O)OCC)ccc34)c(OCC)ccc2c1 | > 100 |  | > 100 | > 100 | > 100 | > 100 | > 100 | > 100 | > 100 | > 100
24 | O=C(Cn1c(=O)ccn(C2OC(CO)C(O)C2F)c1=O)c1ccc(F)cc1 (configuration not stated) | > 100 | > 100 | > 100 | > 100 | > 100 | > 100 | > 100 |  | > 100 | > 100
25 | CCN1CC2=C(N=c3s/c(=C\c4ccc(Cl)cc4)c(=O)n3C2c2ccc(Cl)cc2)/C(=C/c2ccc(Cl)cc2)C1 (configuration not stated) | > 100 |  | > 100 | > 100 | > 100 | > 100 | > 100 |  | > 100 | > 100
26 | c1ccc2c(c1)ccc1nc(-c3ccc4c(c3)OCO4)c3c(c12)CCCC3 | 24.2 | 34.2 | > 100 | > 100 | 82 | > 100 | > 100 |  | > 100 | > 100
27 | CN(C)c1ccc(-c2cc(=O)c3ccccc3[nH]2)cc1 | > 100 | > 100 | > 100 |  |  | > 100 | > 100 |  | > 100 | 
28 | CCOC(=O)C1C(=O)CC(O)(OCC)C(C(=O)OCC)C1c1ccc(OC)cc1 (configuration not stated) | > 100 |  | > 100 | > 100 | > 100 | > 100 | > 100 | > 100 | > 100 | > 100
29 | NC(N)=NCCCC(N=c1c2ccccc2n(O)c2ccccc12)C(=O)O (configuration not stated) | > 100 |  | > 100 | > 100 | > 100 | 90.1 | > 100 |  | > 100 | 
30 | C=C[C@@H]1OC(=O)O[C@H]1CO | > 100 |  | > 100 | > 100 | > 100 | > 100 | > 100 |  | > 100 | > 100
31 | C[C@]12CC[C@@H]3c4ccc(O)cc4CC[C@H]3[C@@H]1C/C(=C\c1ccc([N+](=O)[O-])cc1)C2=O | > 100 | 75 | > 100 | > 100 | > 100 | > 100 | > 100 |  | > 100 | > 100
32 | C=CC1(C)CCC(C(C)C(=O)C(C=C(C)C)OC(C)=O)C12C(=O)Oc1ccccc1C2=O (configuration not stated) | > 100 | > 100 | > 100 |  | > 100 | > 100 | > 100 | > 100 | > 100 | 
33 | Cc1[nH]c2ncn3nc(C(Cl)(Cl)Cl)nc3c2c1Cc1ccccc1 | > 100 | > 100 | > 100 | > 100 | > 100 | > 100 | > 100 |  | > 100 | > 100
34 | O=C(O)CC(C(=O)O)c1ccccc1[N+](=O)[O-] (configuration not stated) | > 100 |  | > 100 | > 100 | > 100 | > 100 | > 100 | > 100 | > 100 | > 100
35 | CC(=O)ON(OC(C)=O)c1ccc(C)cc1 | > 100 |  | > 100 | > 100 | > 100 | > 100 | > 100 | > 100 | > 100 | > 100
36 | COc1c(CC=C(C)C)c(O)c(C(CC(C)C)c2c(O)c(C(C)=O)c(O)c3c2OC(C(C)(C)O)C3)c(O)c1C(C)=O (configuration not stated) |  | > 12.5 | > 12.5 | > 12.5 | > 12.5 | > 12.5 | > 12.5 | 5.21 |  | > 12.5
